According to patent publication US20070185176A1, “Heparanase inhibitors and uses thereof” (Insight Bioharmaceuticals Ltd., priority 2004, published 2007):

How the values were obtained:
[1] = biological target: T1, human recombinant heparanase (h-hpa) (Homo sapiens, UniProt Q9Y251); assay: In vitro dimethylmethylene blue (DMB) assay for heparanase activity
T1 sequence (Q9Y251 158-543 limits assumed): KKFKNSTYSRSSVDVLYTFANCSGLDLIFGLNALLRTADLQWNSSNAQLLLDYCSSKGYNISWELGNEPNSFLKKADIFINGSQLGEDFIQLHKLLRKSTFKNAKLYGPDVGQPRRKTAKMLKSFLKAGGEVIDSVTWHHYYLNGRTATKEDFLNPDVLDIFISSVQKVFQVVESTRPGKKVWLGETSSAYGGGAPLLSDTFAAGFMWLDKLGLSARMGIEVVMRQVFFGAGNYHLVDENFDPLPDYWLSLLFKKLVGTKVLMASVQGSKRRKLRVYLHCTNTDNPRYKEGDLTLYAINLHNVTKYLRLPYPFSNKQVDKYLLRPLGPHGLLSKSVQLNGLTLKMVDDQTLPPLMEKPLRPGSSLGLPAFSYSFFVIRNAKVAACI
T1 sequence (Q9Y251 36-109 limits assumed): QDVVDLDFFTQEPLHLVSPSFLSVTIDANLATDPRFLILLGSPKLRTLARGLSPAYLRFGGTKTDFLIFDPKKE
Experimental: (a) In Vitro Dimethylmethylene Blue (DMB) Assay for Heparanase Activity
Heparin Sepharose CL-6B beads were added up to the top of the wells of a multiscreen column loader (Millipore). A 96-well multiscreen plate containing 0.65 μm hydrophilic, low protein binding, Durapore membrane (Millipore) was placed, upside down, on top of the multiscreen column loader. The column loader and the multiscreen plate were held together, turned over, and the beads were uniformly transferred from the column loader to the multiscreen plate (Millipore, MADVM 650). Double-distilled water (DDW) was then added to the beads, which were allowed to swell for one minute, and then washed (three times) with DDW under vacuum. Heparin concentration was estimated to be 10 μM/well.
To each well, phosphate-buffered saline (PBS) containing 1% bovine serum albumin (BSA; 70 μl/well) and DMB (32 mg of DMB were dissolved in 5 ml ethanol, diluted to 1 liter with formate buffer containing 4 g sodium formate and 4 ml formic acid; 120 μl/well) were added. Color was developed after 5 minutes, and the absorbance of the samples was determined using a microplate reader (Spectra Max, Molecular Devices) at 530 nm with 570 nm as reference. The absorbance correlated to heparanase activity. As a control, heparanase was added to the heparin Sepharose swollen beads in the multiscreen plate and the heparanase reaction products were filtered immediately thereafter and the absorbance of these control samples was subtracted from all other samples.
The cell extracts were centrifuged and resuspended in 20 mM phosphate citrate buffer, pH 5.4 containing 50 mM NaCl. The cells were lysed by three cycles of freezing and thawing. The cell lysates were centrifuged (10000×g for 5 min), supernatants were collected and then assayed for heparanase activity using the DMB assay.
The partially purified human recombinant heparanase or the crude cell extracts expressing either human or mouse recombinant heparanase were added for a 3-hour incubation and the reaction continued as described above. Absorbance of the developing color was measured as described above.

HT1080 cells = assay: In vitro assay of invasion inhibition (BD BioCoat Angiogenesis System, matrigel); assay type: cell-based, human; conditions: for Invasion: HT1080 cells through matrigel, non-toxic concentration, 22 hours
Experimental: (c) In Vitro Assay of Invasion Inhibition by Heparanase Inhibitors
The ability of the compounds of the invention to inhibit cell invasion was determined quantitatively by the in vitro Endothelial Cell Migration assay using a BD BioCoat Angiogenesis System kit. The kit consists of a 24-multiwell insert plate (FluoroBlok, BD Falcon) containing a microporous (3.0 μm pore size) polyethylene terephthalate (PET) membrane that is capable of blocking fluorescence completely (>99% efficiency). This membrane is uniformly coated with matrigel (BD Matrigel Matrix). The uniform layer of matrigel matrix serves as a reconstituted authentic basement membrane in vitro, providing a true barrier to non-invasive cells, but allowing endothelial cells to attach to the membrane and freely migrate towards an angiogenic stimulus in the lower chamber of the insert plate. Post-labeling the cells with a fluorescent dye and measuring the fluorescence of invading cells in a fluorescent plate reader, provides quantitative measurement of cell invasion.
To cover the optimal seeding density for HT1080 cells, suspensions containing various cell concentrations were prepared: 1 ml of 3×10^5 cells/ml, 8 ml of 1.5×10^5 cells/ml and 1 ml of 0.75×10^5 cells/ml. The top chambers of each well in the inserts was filled with 0.25 ml cell-suspension, […] DMEM containing 5% fetal calf serum and an inhibitor solution. The plates were incubated for 22 hours at 37° C. and 8% CO2 atmosphere. At the end of incubation, the medium was aspirated from the upper chambers, and the insert was transferred into a second 24-well plate containing 0.5 ml/well of the fluorescent dye Calcein AM solution (4 μg/ml per plate, prepared from 50 μg Calcein AM dissolved in 20 μl DMSO and 12.5 ml of warm HBSS medium), and incubated for 90 minutes at 37° C., 8% CO2 atmosphere. Fluorescence of invaded cells was read in a fluorescence plate reader with bottom read capabilities at excitation/emission wavelength of 485/530 nm, without further manipulation. Only those labeled cells that have invaded the matrigel and passed through the pores of the PET membrane, were detected.

Compound | IC50 [1] [nM] | Invasion (HT1080 cells) | inhibition of cell invasion (HT1080 cells)
CCCCCCCCCCCCCCCCCC(=O)NC1=NN(c2ccc(Oc3ccccc3)c(S(=O)(=O)O)c2)C(=O)C1/N=N/c1c(C)nn(C)c1C (centres unmarked) [Compound 22] | 650 | yes | –
CCCCCCCCCCCCCCCCCC1=NN(c2ccc(Oc3ccccc3)cc2S(=O)(=O)O)C(=O)C1/N=N/c1ccc(OC)cc1 (centres unmarked) [Compound 19] | 320 | yes | –
CCCCCCCCCCCCCCCCCC1=Nn2c(nc3c(C(=O)O)cc(S(=O)(=O)O)cc32)C1 [Compound 4] | 1200 | yes | –
CCCCCCCCCCCCCCCCCC1=NN(c2ccc(Oc3ccccc3)c(S(=O)(=O)O)c2)C(=O)C1/N=N/c1c(C)n[nH]c1C (centres unmarked) [Compound 12] | 240 | yes | –
CCCCCCCCCCCCCCCCCC(=O)NNC(=O)CC(=O)Nc1ccccc1C(=O)O [Compound 2] | 1700 | yes | effective inhibitors of cell invasion
CCCCCCCCCCCCCCCCCC1=NN(c2ccc(Oc3ccccc3)c(S(=O)(=O)O)c2)C(=O)C1 [Compound 29] | 320 | yes | –
CCCCCCCCCCCCCCCc1ccc(OC(CC)C(=O)NCCCNC(=O)c2ccc3ccccc3c2O)cc1 (centres unmarked) [Compound 31] | 520 | yes | –
CCCCCCCCCCCCCCCCCC1=NN(c2ccc(Oc3ccccc3)c(S(=O)(=O)O)c2)C(=O)C1C(C)C (centres unmarked) [Compound 30] | 160 | yes | –
CCCCCCCCCCCCCCCCCC1=NN(c2ccc(Oc3ccccc3)c(S(=O)(=O)O)c2)C(=O)C1/N=N/c1ccc(O)c(OC)c1 (centres unmarked) [Compound 15] | 250 | yes | –
CCCCCCCCCCCCCCCCCC1=NN(c2ccc(Oc3ccccc3)c(S(=O)(=O)O)c2)C(=O)C1/N=N/c1ccc(N(CC)CC)cc1 (centres unmarked) [Compound 10] | 260 | yes | –
CCCCCCCCC(CCCCCCCC)C1=NN(c2cccc(S(=O)(=O)O)c2)C(=O)C1 [Compound 17] | 2700 | yes | –
CCCCCCCCCCCCCCCCCC(=O)NC1=NN(c2ccc(Oc3ccccc3)c(S(=O)(=O)O)c2)C(=O)C1 [Compound 1] | – | yes | effective inhibitors of cell invasion
CCCCCCCCCCCCCCCCCC1=Nn2c(nc3cc(C(=O)O)ccc32)C1S(=O)(=O)O (centres unmarked) [Compound 36] | 1420 | – | –
CCCCCCCCCCCCCCCCCC(=O)Nc1ccc(C(=O)NC2=NN(c3ccc(Oc4ccccc4)c(S(=O)(=O)O)c3)C(=O)C2/N=N/c2ccc(NS(=O)(=O)c3ccc(C)cc3)cc2)cc1 (centres unmarked) [Compound 27] | 270 | – | –
CCCCCCCCCCCCCCCCOc1ccccc1C1C=NN(c2ccc(S(=O)(=O)O)cc2)C1=O (centres unmarked) [Compound 28] | 1000 | yes | –
CCCCCCCCCCCCCCCCCCN(C)c1ccc(C(=O)O)cc1NC(=O)c1cc(/N=N/c2cc(C(=O)O)ccc2O)c2ccccc2c1O [Compound 50] | 4500 | – | –

Compound | IC50 [1] [nM] | Invasion (HT1080 cells) | inhibition of cell invasion (HT1080 cells)
CCCCCCCCCCCCCCCCCCC(=O)CC(=O)Nc1ccc(Oc2ccc(C(=O)O)cc2)c(C(=O)O)c1 [Compound 51] | 3000 | – | –
CCCCCCCCCCCCCCCCCC(=O)NC1=NN(c2ccc(Oc3ccccc3)c(S(=O)(=O)O)c2)C(=O)C1/N=N/c1ccc(O)cc1Cl (centres unmarked) [Compound 69] | 180 | – | –
CCCCCCCCCCCCCCCCCCN(C)c1ccc(S(=O)(=O)O)cc1NC(=O)c1cc(/N=N/c2cccc(NS(=O)(=O)c3ccccc3)c2)c2ccccc2c1O [Compound 33] | 210 | – | –
CCCCCCCCCCCCCCCCCCN(C)c1ccc(S(=O)(=O)O)cc1NC(=O)c1cc(O)c2ccccc2c1 [Compound 77] | 340 | – | –
CCCCCCCCCCCCCCCCCCN(C(=O)c1ccc2ccccc2c1O)c1cc(C(=O)O)cc(C(=O)O)c1 [Compound 3] | 380 | yes | effective inhibitors of cell invasion
CCCCCCCCCCCC(Cl)C(O)CCCCC(=O)Nc1cc(C(=O)O)ccc1Oc1cc(C(=O)O)cc(C(=O)O)c1 (centres unmarked) [Compound 93] | 9150 | – | –
CCCCCCCCCCCCCCCCCC(=O)NC1=NN(c2ccc(Oc3ccccc3)c(S(=O)(=O)O)c2)C(=O)C1/N=N/c1cc(C(=O)O)c(O)cc1Cl (centres unmarked) [Compound 9] | 160 | yes | –
CCCCCCCCCCCCCCCCCCn1c(-c2ccccc2)nc2cc(S(=O)(=O)O)ccc21 [Compound 102] | 630 | – | –
CCCCCCCCCCCCCCCCCCOc1ccc(S(=O)(=O)Nc2cccc(S(=O)(=O)N/N=C3\N(C)c4ccccc4C3(C)C)c2)cc1C(=O)O [Compound 59] | 490 | – | –
CCCCCCCCCCCCCCCCOc1ccc(S(=O)(=O)O)cc1C(=O)O [Compound 88] | 4400 | – | –
CCCCCCCCCCCCCCCC1=NN(c2ccc(S(=O)(=O)O)cc2)C(=O)C1Br (centres unmarked) [Compound 13] | 1000 | yes | –
CCCCCCCCCCCCCCCCCCNC(=O)C1CC(=O)N(c2ccc(Oc3ccc(S(=O)(=O)O)cc3)c(S(=O)(=O)O)c2)C1 (centres unmarked) [Compound 104] | 470 | – | –
CCCCCCCCCCCCCCCCCC1=NN(c2ccc(Oc3ccc(OCC)cc3)c(S(=O)(=O)O)c2)C(=O)C1 [Compound 24] | 630 | yes | –
CCCCCCCCCCCCCCCCCC/C=C/c1cc(C(=O)O)c2oc3c(C(=O)O)cccc3c2c1 [Compound 90] | 8500 | – | –
CCCCCCCCCCCC1SC1CCCCC(=O)Nc1cc(C(=O)O)ccc1Oc1cc(C(=O)O)cc(C(=O)O)c1 (centres unmarked) [Compound 92] | 500 | – | –

Further molecules by falling IC50 [1], results first:

IC50 [1] [nM] | Compound | Invasion (HT1080 cells) | inhibition of cell invasion (HT1080 cells)
7700 | CCCCCCCCCCCCCCCCCCOc1ccc(C(=O)O)cc1NC(=O)c1cc(Sc2nnnn2-c2ccccc2)c2ccccc2c1O [Compound 46] | – | –
7000 | CCCCCCCCCCCCCCCCCCNC(=O)Nc1ccc(S(=O)(=O)O)cc1 [Compound 70] | – | –
6000 | CCCCCCCCCCCCC/C=C/CC(O)(C(=O)O)C(F)(F)F (centres unmarked) [Compound 97] | – | –
2000 | CCCCCCCCCCC/C=C\CCCCC(=O)Nc1cc(C(=O)O)ccc1Oc1cc(C(=O)O)cc(C(=O)O)c1 [Compound 86] | – | –
1500 | CCCCCCCCCCCCC/C=C/CC(O)(C(=O)Cc1cc(C(=O)O)ccc1Oc1cc(C(=O)O)cc(C(=O)O)c1)C(F)(F)F (centres unmarked) [Compound 98] | – | –
950 | CCCCCCCCCCCCCCCCCCOc1ccc(S(=O)(=O)N/N=C2\N(CC)c3ccccc3C2(C)C)cc1C(=O)O [Compound 48] | – | –
860 | CCCCCCCCCCCCCCCCCCNC(=O)C1CC(=O)N(c2ccc(Oc3ccc(Br)cc3)c(S(=O)(=O)O)c2)C1 (centres unmarked) [Compound 105] | – | –
550 | CCCCCCCCCCCCCCCCCCN(C(=O)c1cc(Br)c2ccccc2c1O)c1cc(C(=O)O)cc(C(=O)O)c1 [Compound 43] | yes | –
400 | CCCCCCCCCCC/C=C\CCCCC(=O)NC1=NN(c2ccc(Oc3ccccc3)c(S(=O)(=O)O)c2)C(=O)C1 [Compound 85] | – | –
400 | CCCCCCCCCCCC1OC1CCCCC(=O)Nc1cc(C(=O)O)ccc1Oc1cc(C(=O)O)cc(C(=O)O)c1 (centres unmarked) [Compound 87] | – | –
290 | CCCCCCCCCCCCCCCCCC(=O)NC1=NN(c2ccc(Oc3ccccc3)c(S(=O)(=O)O)c2)C(=O)C1/N=N/c1cc(C(=O)OC)ccc1O (centres unmarked) [Compound 18] | yes | –
250 | CCCCCCCCCCCCCCCCCC1=NN(c2ccc(Oc3ccccc3)c(S(=O)(=O)O)c2)C(=O)C1Br (centres unmarked) [Compound 6] | – | –
240 | CCCCCCCCCCCCCCCCCC(=O)Nc1nn(-c2ccc(Oc3ccccc3)c(S(=O)(=O)O)c2)c(O)c1/N=N/c1c(C)nn(CCCCCCCCCC)c1C [Compound 32] | yes | –
220 | CCCCCCCCCCCCCCCCCC1=NN(c2ccc(Oc3ccccc3)c(S(=O)(=O)O)c2)C(=O)C1/N=N/c1cccc(O)c1 (centres unmarked) [Compound 16] | yes | –
